According to publication PMC12024264, “Frog Skin Peptides Hylin-a1, AR-23, and RV-23: Promising Tools Against Carbapenem-Resistant Escherichia coli and Klebsiella pneumoniae Infections” (Antibiotics, 2025):
Where no end group is shown, it is not given here.

Tests used:
[1] = Serum stability assay; format: in vitro ADME, bovine; conditions: 10% FBS
Procedure: The susceptibility of Hylin-a1, AR-23, and RV-23 to proteolytic degradation in serum was evaluated, following the protocol reported in Section 4.3.
Figure 6 AMP stability in serum. Stability profiles of Hylin-a1 (red line), AR-23 (gray line), and RV-23 (black line) are reported. All stability tests were performed at least in triplicate. LC-MS analyses were performed using an Agilent 1260 Infinity II LC/MSD system (Milan, Italy). The percentages of intact peptides after different time points of incubation in serum were determined by integrating RP-HPLC peaks from the chromatograms recorded at a wavelength of 210 nm. The test was performed in triplicate, and the data are presented as mean values, with error bars representing standard deviations.
Peptides were mixed with 10% FBS at a final concentration of 0.2 mg/mL and incubated in a water bath at 37 °C. […] Then, the mixture was diluted with 0.1% TFA in H2O (1:1). Samples were characterized using LC-MS on a C18 Aeris Peptide column (100 × 2.1 mm), applying a linear gradient from 5 to 80% solvent B (0.1% TFA in CH3CN) over solvent A (0.1% TFA in water) in 15 min at a flow rate of 0.2 mL/min. All stability tests were performed at least in triplicate. LC-MS analyses were performed using an Agilent 1260 Infinity II LC/MSD system (Milan, Italy).

[2] = system: E. coli ATCC 25992; assay: Biofilm initial cell attachment assay; format: cell-based, Escherichia coli; conditions: 2 h; for concentration of total reduction in biofilm attachment (antibiofilm MIC): initial cell attachment, 37 °C, peptides 50-1.56 μM, absorbance 570 nm
Procedure: We also investigated the ability of peptides to interfere with biofilm using three different assays (refer to the Section 4) against K. pneumonia and E. coli.
Figure 3 The effect of Hylin-a1, AR-23, and RV-23 on the initial cell attachment of biofilm formation. […] Statistical analysis was performed by One-way ANOVA followed by Dunnett’s multiple comparisons test.
The anti-biofilm activity of peptides was evaluated against E. coli and K. pneumoniae ATCC strains. Bacterial cultures were grown overnight, then diluted to an OD600 of 0.1 in MH broth supplemented with 1% (v/v) glucose. A 100 μL aliquot of the bacterial suspension was combined with an equal volume of peptides at non-cytotoxic concentrations in a 96-well plate and incubated at 37 °C for 2 h. Following incubation, non-adherent planktonic cells were removed by washing with phosphate-buffered saline (PBS, Microtech), and adherent cells were incubated with MTT solution for 3 h at 37 °C. Additionally, adherent cells were collected, resuspended in PBS, and plated on agar for viable cell counting. Serial dilutions were performed for each peptide, and CFU/mL were determined after 20 h of incubation at 37 °C (Figure S2). Absorbance was measured at 570 nm to evaluate adhesion percentage.

[3] = system: E. coli ATCC 25992; assay: Time-kill assay; format: cell-based, Escherichia coli
Procedure: This in vitro method allows for assessing the kinetics of bacterial killing by peptides over time. […] Specifically, at each time point, 50 μL aliquots of the bacterial–peptide mixtures were collected and plated on agar (see Materials and Methods for further details). Following incubation, colony-forming units (CFUs) were counted and the killing rate of each peptide concentration was calculated (Figure 2).
Figure 2 Evaluation of the kinetic-killing effect of Hylin-a1, AR-23, and RV-23 against K. pneumoniae and E. coli. […] Untreated bacteria was used as control negative (CTR- in black).
Using the same conditions as the MIC assay, a time–kill test was performed to monitor bacterial growth over time. […] Finally, bacterial colonies were counted, and the CFU/mL was calculated.

[4] = system: E. coli 2267; conditions: carbapenemase NDM (class B), rectal swab, N/D = no antibacterial activity detected; for MIC: microdilution, 37 °C, 20 h
Procedure: (§1) Each strain was grown in Mueller Hinton Broth (MH Broth), and 5 × 10^5 CFU/mL was used to evaluate antibacterial activity. Clinical carbapenem-resistant K. pneumoniae and E. coli isolates were collected at the AOU of Virology and Microbiology of the University of Campania “Luigi Vanvitelli”.
(§2) The antimicrobial activity of Hylin-a1, AR-23, and RV-23 was investigated using a microdilution assay as reported by the National Committee on Clinical Laboratory Standards (NCCLS) guidelines against a broad spectrum of Gram-negative bacteria. […] In 96-well, the standardized bacterial inoculum (5 × 10^5 colony forming units, CFU/mL) was inoculated together with AMPs and incubated at 37 °C for 20 h. After the time of incubation, optical density (OD) was measured at TECAN, and data were expressed as a percentage of inhibition. In addition to assessing the MIC values, the bactericidal effect was also studied as reported elsewhere.

[5] = system: K. pneumoniae 1746; conditions: carbapenemase VIM (class B), rectal swab; microdilution, 37 °C, 20 h; N/D = no antibacterial activity detected
Procedure: as §1, §2

[6] = system: K. pneumoniae 1711; conditions: carbapenemase KPC (class A), rectal swab, N/D = no antibacterial activity detected; for MIC: microdilution, 37 °C, 20 h
Procedure: as §1, §2

[7] = system: E. coli 1441; conditions: carbapenemase KPC (class A), rectal swab, N/D = no antibacterial activity detected; for MIC: microdilution, 37 °C, 20 h
Procedure: as §1, §2

[8] = system: E. coli 716; conditions: carbapenemases IMP1, VIM, NDM (class B), urine, N/D = no antibacterial activity detected; for MIC: microdilution, 37 °C, 20 h
Procedure: as §1, §2

[9] = system: E. coli 3140; conditions: carbapenemase OXA-48 (class D), urine; microdilution, 37 °C, 20 h; N/D = no antibacterial activity detected
Procedure: as §1, §2

[10] = system: E. coli 1376; conditions: carbapenemase NDM (class B), rectal swab, N/D = no antibacterial activity detected; for MIC: microdilution, 37 °C, 20 h
Procedure: as §1, §2

[11] = system: K. pneumoniae 1745; conditions: carbapenemase KPC (class A), ulcer, N/D = no antibacterial activity detected; for MIC: microdilution, 37 °C, 20 h
Procedure: as §1, §2

[12] = system: E. coli; assay: Checkerboard assay with meropenem; conditions: for MIC of peptide in combination with meropenem: checkerboard, 20 h, OD600

| Substance | concentration of total reduction in biofilm attachment (antibiofilm MIC) [2] [µM] | MBC [4] [µM] | MIC [4] [µM] | MIC [5] [µM] | MBC [6] [µM] | MIC [6] [µM] | MIC [7] [µM] | MIC [8] [µM] | MIC [9] [µM] | MIC [10] [µM] | MBC [11] [µM] | MIC [11] [µM] | MIC of peptide in combination with meropenem [12] [µM] | also measured |
| --- | --- | --- | --- | --- | --- | --- | --- | --- | --- | --- | --- | --- | --- | --- |
| RIGVLLARLPKLFSLFKLMGKKV-NH2 [RV-23] | 12.5 | 12.5 | 12.5 | 12.5 | 12.5 | 12.5 | 6.25 | 25 | 25 | 6.25 | 25 | 12.5 | 6.25 | percentage of intact fragments, almost constant up to 24 h ([1]; 0.2 mg/mL, 37 °C, RP-HPLC peaks at 210 nm, mean of triplicate, after the first 2 h up to 24 h): around 30%; half-life ([1]; serum, peptide 0.2 mg/mL, 37 °C water bath, ethanol precipitation, LC-MS, RP-HPLC peak integration at 210 nm, at least triplicate): < 2 h; time to significant reduction in bacterial viability / bactericidal effect [3]: ≤ 2 h; MBC [7]: 12.5 µM; MBC [8]: 25 µM; MBC [10]: 6.25 µM |
| IFGAILPLALGALKNLIK-NH2 [Hylin-a1] | 50 | 50 | 25 | 25 | 50 | 25 | 50 | 25 | 50 | 25 | 50 | 50 | 3.125 | remaining at 16 h ([1]; serum, after 16 h, 0.2 mg/mL, 37 °C, RP-HPLC peaks at 210 nm, mean of triplicate, read-out: intact peptide remaining in solution): 60%; reduction of biofilm (initial attachment) ([2]; at 50 μM): 80–100%; bacterial killing in time-kill assay [3]: kills bacteria; combinatory effect of peptide and meropenem ([12]; interpretation of FICI by Table 4): partial synergism |
